Source: the NIST ThermoML archive (doi:10.1016/j.jct.2005.06.015)
Numbers after ± are expanded uncertainties.

Legend:
[1] = refractive index (Na D-line) (dimensionless); details: 101.33 kPa, Liquid, Standard Abbe refractometry
[2] = 101 kPa, Liquid
[3] = refractive index (Na D-line) (dimensionless); xn = mol fraction of the nth substance listed; details: 101 kPa, Liquid, Standard Abbe refractometry
[4] = xn = mol fraction of the nth substance listed; details: 101 kPa, Liquid

ClC(Cl)C(Cl)Cl [1,1,2,2-tetrachloroethane]
Details	mass density, [2] [kg/m3]	refractive index, [1]
293.15 K	1594.27 ± 1.3	1.49387 ± 0.00037
303.15 K	1574.85 ± 1.3	1.48887 ± 0.00037

ClC(Cl)C(Cl)Cl [1,1,2,2-tetrachloroethane] + CCCCCCCCCCO
Details	mass density, [4] [kg/m3]	refractive index, [3]
293.15 K, x1 = 0.1023	874.88 ± 0.55	1.44019 ± 0.00037
293.15 K, x1 = 0.2004	922 ± 0.54	1.44342 ± 0.00037
293.15 K, x1 = 0.3006	974.95 ± 0.55	1.44704 ± 0.00037
293.15 K, x1 = 0.4005	1033.5 ± 0.61	1.45108 ± 0.00037
293.15 K, x1 = 0.5009	1099.29 ± 0.71	1.45575 ± 0.00037
293.15 K, x1 = 0.6001	1172.37 ± 0.78	1.46097 ± 0.00037
293.15 K, x1 = 0.6999	1255.81 ± 0.87	1.46711 ± 0.00037
293.15 K, x1 = 0.8	1351.62 ± 0.98	1.47434 ± 0.00037
293.15 K, x1 = 0.901	1464.04 ± 1.1	1.48303 ± 0.00037
293.15 K, x1 = 1	1594.27 ± 1.3	1.49387 ± 0.00037
303.15 K, x1 = 0.1023	867.03 ± 0.55	1.43656 ± 0.00037
303.15 K, x1 = 0.2004	913.42 ± 0.54	1.43969 ± 0.00037
303.15 K, x1 = 0.3006	965.57 ± 0.54	1.44313 ± 0.00037
303.15 K, x1 = 0.4005	1023.2 ± 0.59	1.44706 ± 0.00037
303.15 K, x1 = 0.5009	1087.89 ± 0.7	1.45152 ± 0.00037
303.15 K, x1 = 0.6001	1159.72 ± 0.76	1.45665 ± 0.00037
303.15 K, x1 = 0.6999	1241.75 ± 0.85	1.46263 ± 0.00037
303.15 K, x1 = 0.8	1336.02 ± 0.96	1.46974 ± 0.00037
303.15 K, x1 = 0.901	1446.7 ± 1.1	1.47826 ± 0.00037
303.15 K, x1 = 1	1574.85 ± 1.3	1.48887 ± 0.00037

ClC(Cl)C(Cl)Cl [1,1,2,2-tetrachloroethane] + CCCCCCCCO
Details	mass density, [4] [kg/m3]	refractive index, [3]
293.15 K, x1 = 0.1028	879.91 ± 0.55	1.43403 ± 0.00037
293.15 K, x1 = 0.1967	933.27 ± 0.54	1.43826 ± 0.00037
293.15 K, x1 = 0.2997	995.8 ± 0.55	1.44321 ± 0.00037
293.15 K, x1 = 0.4005	1061.47 ± 0.64	1.44845 ± 0.00037
293.15 K, x1 = 0.501	1132.1 ± 0.76	1.45416 ± 0.00037
293.15 K, x1 = 0.6	1207.5 ± 0.82	1.46034 ± 0.00037
293.15 K, x1 = 0.6999	1290.57 ± 0.91	1.46723 ± 0.00037
293.15 K, x1 = 0.7998	1381.66 ± 1	1.47492 ± 0.00037
293.15 K, x1 = 0.9007	1483.42 ± 1.2	1.48379 ± 0.00037
293.15 K, x1 = 1	1594.27 ± 1.3	1.49387 ± 0.00037
303.15 K, x1 = 0.1028	872.01 ± 0.55	1.43011 ± 0.00037
303.15 K, x1 = 0.1967	924.42 ± 0.54	1.43419 ± 0.00037
303.15 K, x1 = 0.2997	985.92 ± 0.55	1.43892 ± 0.00037
303.15 K, x1 = 0.4005	1050.64 ± 0.63	1.44404 ± 0.00037
303.15 K, x1 = 0.501	1120.29 ± 0.74	1.44968 ± 0.00037
303.15 K, x1 = 0.6	1194.6 ± 0.8	1.45579 ± 0.00037
303.15 K, x1 = 0.6999	1276.31 ± 0.89	1.46262 ± 0.00037
303.15 K, x1 = 0.7998	1365.71 ± 1	1.47026 ± 0.00037
303.15 K, x1 = 0.9007	1465.56 ± 1.1	1.47898 ± 0.00037
303.15 K, x1 = 1	1574.85 ± 1.3	1.48887 ± 0.00037

ClC(Cl)C(Cl)Cl [1,1,2,2-tetrachloroethane] + CCCCCCCO
Details	mass density, [4] [kg/m3]	refractive index, [3]
293.15 K, x1 = 0.1022	883.03 ± 0.55	1.42952 ± 0.00037
293.15 K, x1 = 0.1995	943.76 ± 0.54	1.43494 ± 0.00037
293.15 K, x1 = 0.3002	1009.72 ± 0.57	1.4406 ± 0.00037
293.15 K, x1 = 0.4008	1079.02 ± 0.66	1.44661 ± 0.00037
293.15 K, x1 = 0.5001	1151.23 ± 0.78	1.45297 ± 0.00037
293.15 K, x1 = 0.599	1227.43 ± 0.85	1.45976 ± 0.00037
293.15 K, x1 = 0.6996	1310.04 ± 0.94	1.46717 ± 0.00037
293.15 K, x1 = 0.7999	1398.24 ± 1	1.47525 ± 0.00037
293.15 K, x1 = 0.9015	1494.17 ± 1.2	1.48421 ± 0.00037
293.15 K, x1 = 1	1594.27 ± 1.3	1.49387 ± 0.00037
303.15 K, x1 = 0.1022	875.27 ± 0.55	1.42581 ± 0.00037
303.15 K, x1 = 0.1995	934.97 ± 0.54	1.43106 ± 0.00037
303.15 K, x1 = 0.3002	999.87 ± 0.56	1.43653 ± 0.00037
303.15 K, x1 = 0.4008	1068.12 ± 0.65	1.44244 ± 0.00037
303.15 K, x1 = 0.5001	1139.25 ± 0.76	1.44861 ± 0.00037
303.15 K, x1 = 0.599	1214.28 ± 0.83	1.45521 ± 0.00037
303.15 K, x1 = 0.6996	1295.52 ± 0.91	1.46254 ± 0.00037
303.15 K, x1 = 0.7999	1382.11 ± 1	1.4705 ± 0.00037
303.15 K, x1 = 0.9015	1476.3 ± 1.1	1.47937 ± 0.00037
303.15 K, x1 = 1	1574.85 ± 1.3	1.48887 ± 0.00037
